Laboratory results: patent US12404285B2, “KRAS G12D proteolysis targeting chimeras” (PAQ Therapeutics Inc., priority 2022, dated 2025)

Biological target: T1, KRAS in AGS cells (KRAS G12D mutant cell line) or LS180 cells (KRAS G12D mutant cell line) (Homo sapiens, UniProt P01116, G12D)
T1 construct: CRL-187 (LS180) (so in the source); host or cells: AGS or LS180 cells
Test: KRAS Western Blot (WB) assay
Type: cell-based
Settings: KRAS degradation, 24 hours incubation, normalized to β-actin
Protocol: Day 1. Seeded AGS cells (KRAS G12D mutant cell line, ATCC, CRL-1739) or LS180 cells (KRAS G12D mutant cell line, ATCC, CRL-187) into 6-well plates (cell density: 3×10^5 cells/well/2 ml medium) in Ham's F-12 medium (Invitrogen, 11765-054) or Eagle's Minimum Essential Medium (ATCC, 30-2003) and incubated overnight at 37° C. and 5% CO2.
Day 2. Aspirated 1 ml medium from each well and added 1 ml medium containing DMSO or test compound into the well to achieve the desired final concentration. Mixed well by gentle shaking and incubated for 24 hours.
Day 3. Aspirated media from plates; washed cells with 2 ml 4° C. PBS (Solarbio, P1020-500) and aspirated the PBS. Then added 100 μl 4° C. […] lysis buffer (Boston BioProducts BP-115D) with protease and phosphatase inhibitors at vendor recommended concentrations (Roche 05892791001 and 04906837001) into each well to lyse the cells, and incubated for 20 minutes at 4° C. Cell lysate was collected into 1.5 ml Eppendorf tube, and the lysate was sonicated at 4° C. for 2 minutes (5 second pulse at 30% power with 10 second intermissions). The lysate was centrifuged at 12,000 rpm for 15 minutes at 4° C. The supernatant was transferred to a fresh Eppendorf tube, and protein concentration was quantified using a BCA kit (Solarbio, PC0020-500). Mixed the cell lysate and 5×NuPAGE SDS Loading Buffer (Beyotime, P0015L), and heated at 95° C. for 10 minutes in a heat block. Prepared samples were stored at −80° C. until SDS-PAGE procedure.
Day 4. Loaded 15 μg protein from each sample onto NuPAGE® Novex 4-12% Bis-Tris Midi Gel, 26 W (Invitrogen, WG1403BOX) and ran the gel at 120V for 1.5 hours in 1×NuPAGE® MOPS SDS Running Buffer (Novex, NP0001). Electrotransferred to nitrocellulose membrane using dry transfer method (iBlot 2 Transfer Stacks, nitrocellulose, IB23001) with a program consisting of 20V for 1 minute, 23V for 4 minutes and 25V for 2 minutes. Blocked the membrane with 5% BSA (Solarbio, A8020) in 1×TBST (CST, 9997S) for 1 hour at room temperature. Incubated with KRAS antibody (LSBio, LS-C175665, clone 2C1) at 1:1000 dilution and β-actin antibody at 1:1000 dilution (CST, 4970S) in TBST containing 1% BSA (Solarbio, A8020) at 4° C. overnight.
Day 5. Washed nitrocellulose membrane three times with 1×TBST for 10 minutes each at room temperature. Incubated with fluorescently labeled secondary antibodies at 1:5000 dilution in TBST containing 1% BSA (anti-rabbit IgG, Licor, 926-32211; anti-mouse IgG, LI-COR, 926-68070) for 1 hour at room temperature. Washed membrane three times with TBST, 10 minutes each. Scanned the membrane on LiCOR scanner for fluorescent signal(s) and quantified KRAS bands and β-actin bands for normalization.
The data are reported in Table 2, wherein “A” indicates a DC50 of less than 1 μM; “B” indicates a DC50 of greater than or equal to 1 μM and less than 10 μM; and “C” indicates a DC50 of greater than or equal to 10 μM.

T1 sequence (P01116 1-188 isoform P01116-2 G12D): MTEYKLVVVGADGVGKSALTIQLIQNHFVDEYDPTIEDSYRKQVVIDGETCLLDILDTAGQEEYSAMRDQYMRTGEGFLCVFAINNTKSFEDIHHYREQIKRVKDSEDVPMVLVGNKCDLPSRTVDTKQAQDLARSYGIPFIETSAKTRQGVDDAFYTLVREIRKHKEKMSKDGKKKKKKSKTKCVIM

Row | Compound | DC50
1 | C#Cc1c(F)ccc2cc(O)cc(-c3ncc4c(N5CC6CCC(C5)N6)nc(OC[C@@]56CCCN5[C@H](COC(=O)NCCOCCOCCOCCNc5cccc7c5C(=O)N(C5CCC(=O)NC5=O)C7=O)CC6)nc4c3F)c12 (stereo partly drawn) [Compound 027, [(3R,8R)-8-[[4-(3,8-diazabicyclo[3.2.1]octan-3-yl)-7-(8-ethynyl-7-fluoro-3-hydroxy-1-naphthyl)-8-fluoro-pyrido[4,3-d]pyrimidin-2-yl]oxymethyl]-1,2,3,5,6,7-hexahydropyrrolizin-3-yl]methyl N-[2-[2-[2-[2-[[2-(2,6-dioxo-3-piperidyl)-1,3-dioxo-isoindolin-4-yl]amino]ethoxy]ethoxy]ethoxy]ethyl]carbamate] | C (DC50 greater than or equal to 10 μM)
2 | C#Cc1c(F)ccc2cc(O)cc(-c3ncc4c(N5C[C@H]6CC[C@@H](C5)N6)nc(OC[C@@]56CCCN5[C@H](COC(=O)NCCCCc5cccc7c5n(C)c(=O)n7C5CCC(=O)NC5=O)CC6)nc4c3F)c12 (stereo partly drawn) [Compound 008, ((3S,7aS)-7a-(((4-((1R,5S)-3,8-diazabicyclo[3.2.1]octan-3-yl)-7-(8-ethynyl-7-fluoro-3-hydroxynaphthalen-1-yl)-8-fluoropyrido[4,3-d]pyrimidin-2-yl)oxy)methyl)hexahydro-1H-pyrrolizin-3-yl)methyl (4-(1-(2,6-dioxopiperidin-3-yl)-3-methyl-2-oxo-2,3-dihydro-1H-benzo[d]imidazol-4-yl)butyl)carbamate] | B (DC50 greater than or equal to 1 μM and less than 10 μM)

Next, values leading:

Row | DC50 | Compound
3 | C (DC50 greater than or equal to 10 μM) | C#Cc1c(F)ccc2cc(O)cc(-c3ncc4c(N5CC6CCC(C5)N6)nc(OC[C@@]56CCCN5[C@H](COC(=O)NCCc5cccc7c5n(C)c(=O)n7C5CCC(=O)NC5=O)CC6)nc4c3F)c12 (stereo partly drawn) [Compound 004, [(3S,8S)-8-[[4-(3,8-diazabicyclo[3.2.1]octan-3-yl)-7-(8-ethynyl-7-fluoro-3-hydroxy-1-naphthyl)-8-fluoro-pyrido[4,3-d]pyrimidin-2-yl]oxymethyl]-1,2,3,5,6,7-hexahydropyrrolizin-3-yl]methyl N-[2-[1-(2,6-dioxo-3-piperidyl)-3-methyl-2-oxo-benzimidazol-4-yl]ethyl]carbamate]
4 | C (DC50 greater than or equal to 10 μM) | C#Cc1c(F)ccc2cc(O)cc(-c3ncc4c(N5CC6CCC(C5)N6)nc(OC[C@@]56CCCN5[C@H](COC(=O)NCCCCCc5ccc7c(c5)n(C)c(=O)n7C5CCC(=O)NC5=O)CC6)nc4c3F)c12 (stereo partly drawn) [Compound 005, [(3S,8S)-8-[[4-(3,8-diazabicyclo[3.2.1]octan-3-yl)-7-(8-ethynyl-7-fluoro-3-hydroxy-1-napht-hyl)-8-fluoro-pyrido[4,3-d]pyrimidin-2-yl]oxymethyl]-1,2,3,5,6,7-hexahydropyrrolizin-3-yl]methyl N-[5-[1-(2,6-dioxo-3-piperidyl)-3-methyl-2-oxo-benzimidazol-5-yl]pentyl]carbamate]
5 | C (DC50 greater than or equal to 10 μM) | C#Cc1c(F)ccc2cc(O)cc(-c3ncc4c(N5CC6CCC(C5)N6)nc(OC[C@@]56CCCN5[C@H](COC(=O)NCCCc5ccc7c(c5)n(C)c(=O)n7C5CCC(=O)NC5=O)CC6)nc4c3F)c12 (stereo partly drawn) [Compound 001, [(3S,8S)-8-[[4-(3,8-diazabicyclo[3.2.1]octan-3-yl)-7-(8-ethynyl-7-fluoro-3-hydroxy-1-naphthyl)-8-fluoro-pyrido[4,3-d]pyrimidin-2-yl]oxymethyl]-1,2,3,5,6,7-hexahydropyrrolizin-3-yl]methyl N-[3-[1-(2,6-dioxo-3-piperidyl)-3-methyl-2-oxo-benzimidazol-5-yl]propyl]carbamate]
